test system: HBV; assay: HBV-DNA antiviral assay using HepG2.117 cells (intracellular HBV DNA by qPCR); format: cell-based, genotype D HBV; conditions: Hepatitis B virus, 72 h, HBV DNA inhibition, 3 days incubation, 2% DMSO
In short: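 HepG2.117 cells (stable genotype D HBV, Tet-off) seeded without doxycycline, treated next day with 9-point 4-fold dilutions in 2% DMSO for 3 days at 37° C. Intracellular HBV DNA quantified by qPCR against a standard curve; viability by CellTiter-Glo ATP. EC50, EC90, CC50 from variable-slope dose-response fits versus DMSO control.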

Row | Compound | EC50 [nM]
1 | Cc1nnnn1-c1ccc(-n2c(=O)c3c(n4ncc(Cc5ccccc5)c24)CN(C(=O)c2ccc(Br)c(C(F)(F)F)c2)[C@H](C)C3)cc1 (stereo in doubt) [Compound 46a, rac-(11R)-5-benzyl-12-[4-bromo-3-(trifluoromethyl)benzoyl]-11-methyl-7-[4-(5-methyltetrazol-1-yl)phenyl]-2,3,7,12-tetrazatricyclo[7.4.0.0^2,6]trideca-1(9),3,5-trien-8-one] | < 50
2 | CNC(=O)c1ccc(-n2c(=O)c3c(n4ncc(CC5CCC5)c24)CN(C(=O)c2ccc(Br)c(C(F)(F)F)c2)CC3)cc1 [Compound 16, 4-[12-[4-bromo-3-(trifluoromethyl)benzoyl]-5-(cyclobutylmethyl)-8-oxo-2,3,7,12-tetrazatricyclo[7.4.0.0^2,6]trideca-1(9),3,5-trien-7-yl]-N-methyl-benzamide] | < 50
3 | Cc1ccn(-c2ccc(-n3c(=O)c4c(n5ncc(CC(C)C)c35)CN(C(=O)c3ccc(Br)c(C(F)(F)F)c3)[C@H](C)C4)cc2)n1 (stereo in doubt) [Compound 100a, rac-(11R)-12-[4-bromo-3-(trifluoromethyl)benzoyl]-5-isobutyl-11-methyl-7-[4-(3-methylpyrazol-1-yl)phenyl]-2,3,7,12-tetrazatricyclo[7.4.0.0^2,6]trideca-1(9),3,5-trien-8-one] | < 50
4 | C[C@@H]1Cc2c(n3ncc(Cc4ccccc4)c3n(-c3ccc(-n4ccc(C(F)(F)F)n4)cc3)c2=O)CN1C(=O)c1ccc(Br)c(C(F)(F)F)c1 (stereo in doubt) [Compound 70a, rac-(11R)-5-benzyl-12-[4-bromo-3-(trifluoromethyl)benzoyl]-11-methyl-7-[4-[3-(trifluoromethyl)pyrazol-1-yl]phenyl]-2,3,7,12-tetrazatricyclo[7.4.0.0^2,6]trideca-1(9),3,5-trien-8-one] | 50 to 500
5 | C[C@@H]1Cc2c(n3ncc(Cc4ccccc4)c3n(-c3ccc(-c4nnn[nH]4)cc3)c2=O)CN1C(=O)c1ccc(Br)c(C(F)(F)F)c1 (stereo in doubt) [Compound 71a, rac-(11R)-5-benzyl-12-[4-bromo-3-(trifluoromethyl)benzoyl]-11-methyl-7-[4-(1H-tetrazol-5-yl)phenyl]-2,3,7,12-tetrazatricyclo[7.4.0.0^2,6]trideca-1(9),3,5-trien-8-one] | 500 to 5000
6 | Cc1nnc(-c2ccc(-n3c(=O)c4c(n5ncc(CC(C)C)c35)CN(C(=O)c3ccc(Br)c(C(F)(F)F)c3)[C@H](C)C4)cc2)[nH]1 (stereo in doubt) [Compound 59a, rac-(11R)-12-[4-bromo-3-(trifluoromethyl)benzoyl]-5-isobutyl-11-methyl-7-[4-(5-methyl-4H-1,2,4-triazol-3-yl)phenyl]-2,3,7,12-tetrazatricyclo[7.4.0.0^2,6]trideca-1(9),3,5-trien-8-one] | < 50
7 | O=C(c1ccc(Br)c(Cl)c1)N1CCc2c(n3ncc(Cc4ccccc4)c3n(-c3ccc(-n4ccc(C(F)(F)F)n4)cc3)c2=O)C1 [Compound 13, 5-benzyl-12-(4-bromo-3-chloro-benzoyl)-7-[4-[3-(trifluoromethyl)pyrazol-1-yl]phenyl]-2,3,7,12-tetrazatricyclo[7.4.0.0^2,6]trideca-1(9),3,5-trien-8-one] | 50 to 500
8 | C[C@@H]1Cc2c(n3ncc(Cc4ccccc4)c3n(-c3ccc(-c4nc(=O)on4C)cc3)c2=O)CN1C(=O)c1ccc(Br)c(C(F)(F)F)c1 (stereo in doubt) [Compound 44a, 2-methyl-3-[4-[rac-(11R)-5-benzyl-12-[4-bromo-3-(trifluoromethyl)benzoyl]-11-methyl-8-oxo-2,3,7,12-tetrazatricyclo[7.4.0.0^2,6]trideca-1(9),3,5-trien-7-yl]phenyl]-1,2,4-oxadiazol-5-one] | < 50
9 | C#CCc1cnn2c3c(c(=O)n(-c4ccc(C(=O)NC)cc4)c12)C[C@H](C)N(C(=O)c1ccc(Br)c(C(F)(F)F)c1)C3 (stereo in doubt) [Compound 78b, N-methyl-4-[rac-(11S)-12-[4-bromo-3-(trifluoromethyl)benzoyl]-11-methyl-8-oxo-5-prop-2-ynyl-2,3,7,12-tetrazatricyclo[7.4.0.0^2,6]trideca-1 (9),3,5-trien-7-yl]benzamide] | 50 to 500
10 | Cc1nn[nH]c1-c1ccc(-n2c(=O)c3c(n4ncc(CC(C)C)c24)CN(C(=O)c2ccc(Br)c(Cl)c2)[C@@H](C)C3)cc1 (stereo in doubt) [Compound 64b, rac-(11S)-12-(4-bromo-3-chloro-benzoyl)-5-isobutyl-11-methyl-7-[4-(4-methyl-1H-triazol-5-yl)phenyl]-2,3,7,12-tetrazatricyclo[7.4.0.0^2,6]trideca-1(9),3,5-trien-8-one] | 50 to 500
11 | C[C@H]1Cc2c(n3ncc(Cc4ccccc4)c3n(-c3ccc(-n4nnnc4C(F)(F)F)cc3)c2=O)CN1C(=O)c1ccc(Br)c(C(F)(F)F)c1 (stereo in doubt) [Compound 92b, rac-(11S)-5-benzyl-12-[4-bromo-3-(trifluoromethyl)benzoyl]-11-methyl-7-[4-[5-(trifluoromethyl)tetrazol-1-yl]phenyl]-2,3,7,12-tetrazatricyclo[7.4.0.0^2,6]trideca-1(9),3,5-trien-8-one] | > 5000
12 | C[C@@H]1Cc2c(n3ncc(Cc4ccccc4)c3n(-c3ccc(-c4n[nH]c(=O)n4C)cc3)c2=O)CN1C(=O)c1ccc(Br)c(C(F)(F)F)c1 (stereo in doubt) [Compound 58a, rac-(11R)-5-benzyl-12-[4-bromo-3-(trifluoromethyl)benzoyl]-11-methyl-7-[4-(4-methyl-5-oxo-1H-1,2,4-triazol-3-yl)phenyl]-2,3,7,12-tetrazatricyclo[7.4.0.0^2,6]trideca-1(9),3,5-trien-8-one] | < 50
13 | Cc1ncnn1-c1ccc(-n2c(=O)c3c(n4ncc(Cc5ccccc5)c24)CN(C(=O)c2ccc(Br)c(C(F)(F)F)c2)CC3)cc1 [Compound 36, 5-benzyl-12-[4-bromo-3-(trifluoromethyl)benzoyl]-7-[4-(5-methyl-1,2,4-triazol-1-yl)phenyl]-2,3,7,12-tetrazatricyclo[7.4.0.0^2,6]trideca-1(9),3,5-trien-8-one] | < 50
14 | CNC(=O)c1ccc(-n2c(=O)c3c(n4ncc(Cc5ccccc5)c24)CN(C(=O)c2ccc(Br)c(C(F)(F)F)c2)[C@@H](C)C3)nc1 (stereo in doubt) [Compound 109b, N-methyl-6-[rac-(11S)-5-benzyl-12-[4-bromo-3-(trifluoromethyl)benzoyl]-11-methyl-8-oxo-2,3,7,12-tetrazatricyclo[7.4.0.0^2,6]trideca-1(9),3,5-trien-7-yl]pyridine-3-carboxamide] | < 50
15 | CC(C)Cc1cnn2c3c(c(=O)n(-c4ccc(-c5nncn5C)cc4)c12)C[C@H](C)N(C(=O)c1ccc(Cl)c(C(F)(F)F)c1)C3 (stereo in doubt) [Compound 67b, rac-(11S)-12-[4-chloro-3-(trifluoromethyl)benzoyl]-5-isobutyl-11-methyl-7-[4-(4-methyl-1,2,4-triazol-3-yl)phenyl]-2,3,7,12-tetrazatricyclo[7.4.0.0^2,6]trideca-1(9),3,5-trien-8-one] | 50 to 500
16 | C[C@@H]1Cc2c(n3ncc(Cc4ccccc4)c3n(-c3ccc(-c4nncn4C)cc3)c2=O)CN1C(=O)c1ccc(Br)c(C(F)(F)F)c1 (stereo in doubt) [Compound 39a, rac-(11R)-5-benzyl-12-[4-bromo-3-(trifluoromethyl)benzoyl]-11-methyl-7-[4-(4-methyl-1,2,4-triazol-3-yl)phenyl]-2,3,7,12-tetrazatricyclo[7.4.0.0^2,6]trideca-1(9),3,5-trien-8-one] | < 50
17 | Cn1cnnc1-c1ccc(-n2c(=O)c3c(n4ncc(Cc5ccccc5)c24)CN(C(=O)c2ccc(Br)c(C(F)(F)F)c2)CC3)cc1 [Compound 25, 5-benzyl-12-[4-bromo-3-(trifluoromethyl)benzoyl]-7-[4-(4-methyl-1,2,4-triazol-3-yl)phenyl]-2,3,7,12-tetrazatricyclo[7.4.0.0^2,6]trideca-1(9),3,5-trien-8-one] | < 50
18 | CNC(=O)c1ccc(-n2c(=O)c3c(n4ncc(Cc5ccccc5)c24)CN(C(=O)c2ccc(Br)c(C(F)(F)F)c2)[C@H](C)C3)cc1 (stereo in doubt) [Compound 38a, N-methyl-4-[rac-(11R)-5-benzyl-12-[4-bromo-3-(trifluoromethyl)benzoyl]-11-methyl-8-oxo-2,3,7,12-tetrazatricyclo[7.4.0.0^2,6]trideca-1(9),3,5-trien-7-yl]benzamide] | < 50
19 | Cc1nnc(-c2ccc(-n3c(=O)c4c(n5ncc(Cc6ccccc6)c35)CN(C(=O)c3ccc(Br)c(Cl)c3)[C@H](C)C4)cc2)[nH]1 (stereo in doubt) [Compound 53a, rac-(11R)-5-benzyl-12-(4-bromo-3-chloro-benzoyl)-11-methyl-7-[4-(5-methyl-4H-1,2,4-triazol-3-yl)phenyl]-2,3,7,12-tetrazatricyclo[7.4.0.0^2,6]trideca-1(9),3,5-trien-8-one] | < 50
20 | CNC(=O)c1ccc(-n2c(=O)c3c(n4ncc(Cc5ccccc5)c24)CN(C(=O)c2ccc(Br)c(C)c2)CC3)cc1 [Compound 2, 4-[5-benzyl-12-(4-bromo-3-methyl-benzoyl)-8-oxo-2,3,7,12-tetrazatricyclo[7.4.0.0″2,6]trideca-1(9),3,5-trien-7-yl]-N-methyl-benzamide] | < 50
21 | C[C@H]1Cc2c(n3ncc(Cc4ccccc4)c3n(-c3ccc(-c4nnn[nH]4)cc3)c2=O)CN1C(=O)c1ccc(Br)c(C(F)(F)F)c1 (stereo in doubt) [Compound 71b, rac-(11S)-5-benzyl-12-[4-bromo-3-(trifluoromethyl)benzoyl]-11-methyl-7-[4-(1H-tetrazol-5-yl)phenyl]-2,3,7,12-tetrazatricyclo[7.4.0.0^2,6]trideca-1(9),3,5-trien-8-one] | > 5000
22 | Cc1cnn(-c2ccc(-n3c(=O)c4c(n5ncc(Cc6ccccc6)c35)CN(C(=O)c3ccc(Br)c(Cl)c3)CC4)cc2)c1 [Compound 7, 5-benzyl-12-(4-bromo-3-chloro-benzoyl)-7-[4-(4-methylpyrazol-1-yl)phenyl]-2,3,7,12-tetrazatricyclo[7.4.0.0^2,6]trideca-1(9),3,5-trien-8-one] | < 50
